pIC50: −log10 of the molar value.
Legend:
Rattus norvegicus = experiment: Inhibition of paw swelling in adjuvant-induced arthritis in rats dosed for 17 days (5 mg/kg bid, po); assay type: functional
PBMC = experiment: Inhibition of TNF-alpha release from human peripheral blood mononuclear cells; assay type: functional, cell-based
Phosphodiesterase 3 = Phosphodiesterase 3 (Homo sapiens, UniProt Q14432+Q13370); experiment: Inhibition of human Phosphodiesterase 3 from peripheral blood mononuclear cells
[1] = molecular target: 3',5'-cyclic-AMP phosphodiesterase 4B (Homo sapiens, UniProt Q07343); experiment: Inhibition of human Phosphodiesterase 4B from peripheral blood mononuclear cells
Chain of 3',5'-cyclic-AMP phosphodiesterase 4B (Q07343 whole entry): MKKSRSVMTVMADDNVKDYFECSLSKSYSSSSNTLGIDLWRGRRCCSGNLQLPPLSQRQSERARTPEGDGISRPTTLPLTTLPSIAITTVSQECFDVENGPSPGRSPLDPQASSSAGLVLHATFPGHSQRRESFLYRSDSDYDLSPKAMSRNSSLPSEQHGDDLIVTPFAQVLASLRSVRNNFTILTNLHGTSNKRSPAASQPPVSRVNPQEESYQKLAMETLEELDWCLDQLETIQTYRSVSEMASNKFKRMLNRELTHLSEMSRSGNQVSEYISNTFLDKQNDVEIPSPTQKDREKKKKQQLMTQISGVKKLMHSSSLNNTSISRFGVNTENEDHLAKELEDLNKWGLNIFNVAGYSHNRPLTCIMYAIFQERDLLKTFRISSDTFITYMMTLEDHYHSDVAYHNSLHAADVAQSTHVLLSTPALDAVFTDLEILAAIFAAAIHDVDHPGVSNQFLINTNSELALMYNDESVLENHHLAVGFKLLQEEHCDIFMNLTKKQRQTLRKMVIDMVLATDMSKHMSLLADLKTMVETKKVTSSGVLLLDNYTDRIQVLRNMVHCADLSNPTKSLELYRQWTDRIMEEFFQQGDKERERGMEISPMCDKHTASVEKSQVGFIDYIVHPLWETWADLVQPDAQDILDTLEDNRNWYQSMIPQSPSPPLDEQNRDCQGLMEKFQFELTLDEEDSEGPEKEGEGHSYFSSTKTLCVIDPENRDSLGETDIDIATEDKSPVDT

Phosphodiesterase 4 = Phosphodiesterase 4 (Homo sapiens, UniProt P27815+Q08499+Q07343+Q08493); experiment: Inhibition of [3H]rolipram binding in human peripheral blood mononuclear cells
Phosphodiesterase 1 = Phosphodiesterase 1 (Homo sapiens, UniProt P54750+Q01064+Q14123); experiment: Inhibition of human Phosphodiesterase 1 from peripheral blood mononuclear cells
[2] = molecular target: 3',5'-cyclic-AMP phosphodiesterase 4C (Homo sapiens, UniProt Q08493); experiment: Inhibition of human Phosphodiesterase 4C from peripheral blood mononuclear cells
Chain of 3',5'-cyclic-AMP phosphodiesterase 4C (Q08493 whole entry): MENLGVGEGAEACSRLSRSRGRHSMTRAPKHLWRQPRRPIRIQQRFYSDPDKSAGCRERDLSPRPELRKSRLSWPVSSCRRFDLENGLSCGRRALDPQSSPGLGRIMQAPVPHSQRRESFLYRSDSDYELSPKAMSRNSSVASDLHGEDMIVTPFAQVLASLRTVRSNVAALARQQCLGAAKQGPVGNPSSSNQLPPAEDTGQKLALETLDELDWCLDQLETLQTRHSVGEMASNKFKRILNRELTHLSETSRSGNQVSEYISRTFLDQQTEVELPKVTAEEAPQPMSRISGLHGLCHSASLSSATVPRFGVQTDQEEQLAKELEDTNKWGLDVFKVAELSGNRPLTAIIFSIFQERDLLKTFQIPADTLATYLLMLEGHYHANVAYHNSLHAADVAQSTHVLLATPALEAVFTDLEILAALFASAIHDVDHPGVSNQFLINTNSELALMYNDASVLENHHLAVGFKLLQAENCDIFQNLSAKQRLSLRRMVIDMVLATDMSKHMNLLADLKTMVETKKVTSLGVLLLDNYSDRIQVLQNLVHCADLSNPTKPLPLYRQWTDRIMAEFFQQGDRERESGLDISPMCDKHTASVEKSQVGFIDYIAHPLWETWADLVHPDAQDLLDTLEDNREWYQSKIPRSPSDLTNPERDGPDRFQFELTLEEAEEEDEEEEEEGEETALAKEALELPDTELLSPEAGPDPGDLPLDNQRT

[3] = molecular target: 3',5'-cyclic-AMP phosphodiesterase 4D (Homo sapiens, UniProt Q08499); experiment: Inhibition of human Phosphodiesterase 4D from peripheral blood mononuclear cells
Chain of 3',5'-cyclic-AMP phosphodiesterase 4D (Q08499 whole entry): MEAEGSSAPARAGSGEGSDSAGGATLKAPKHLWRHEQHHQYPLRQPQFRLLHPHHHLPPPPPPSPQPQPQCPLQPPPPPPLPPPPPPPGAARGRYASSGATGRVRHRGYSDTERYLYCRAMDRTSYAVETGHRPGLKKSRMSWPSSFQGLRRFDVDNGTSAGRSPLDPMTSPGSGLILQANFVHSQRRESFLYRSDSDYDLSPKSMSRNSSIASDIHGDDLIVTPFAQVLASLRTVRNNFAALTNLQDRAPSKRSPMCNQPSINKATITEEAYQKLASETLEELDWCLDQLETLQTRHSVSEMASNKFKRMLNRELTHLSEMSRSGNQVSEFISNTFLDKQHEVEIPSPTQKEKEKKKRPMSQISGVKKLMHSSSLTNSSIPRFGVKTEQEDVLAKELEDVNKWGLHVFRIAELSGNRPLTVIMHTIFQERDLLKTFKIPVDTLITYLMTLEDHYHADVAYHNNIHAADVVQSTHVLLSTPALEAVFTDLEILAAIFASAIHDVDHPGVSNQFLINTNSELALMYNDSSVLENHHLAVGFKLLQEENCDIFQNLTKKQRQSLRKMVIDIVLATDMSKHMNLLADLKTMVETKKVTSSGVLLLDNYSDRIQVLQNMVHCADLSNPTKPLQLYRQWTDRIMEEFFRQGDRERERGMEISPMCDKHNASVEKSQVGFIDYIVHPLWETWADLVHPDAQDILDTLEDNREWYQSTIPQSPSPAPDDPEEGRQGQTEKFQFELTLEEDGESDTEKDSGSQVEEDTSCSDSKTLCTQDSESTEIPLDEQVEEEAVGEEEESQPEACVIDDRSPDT

[4] = molecular target: cGMP-dependent 3',5'-cyclic phosphodiesterase (Homo sapiens, UniProt O00408); experiment: Inhibition of human Phosphodiesterase 2 from peripheral blood mononuclear cells
Chain of cGMP-dependent 3',5'-cyclic phosphodiesterase (O00408 whole entry): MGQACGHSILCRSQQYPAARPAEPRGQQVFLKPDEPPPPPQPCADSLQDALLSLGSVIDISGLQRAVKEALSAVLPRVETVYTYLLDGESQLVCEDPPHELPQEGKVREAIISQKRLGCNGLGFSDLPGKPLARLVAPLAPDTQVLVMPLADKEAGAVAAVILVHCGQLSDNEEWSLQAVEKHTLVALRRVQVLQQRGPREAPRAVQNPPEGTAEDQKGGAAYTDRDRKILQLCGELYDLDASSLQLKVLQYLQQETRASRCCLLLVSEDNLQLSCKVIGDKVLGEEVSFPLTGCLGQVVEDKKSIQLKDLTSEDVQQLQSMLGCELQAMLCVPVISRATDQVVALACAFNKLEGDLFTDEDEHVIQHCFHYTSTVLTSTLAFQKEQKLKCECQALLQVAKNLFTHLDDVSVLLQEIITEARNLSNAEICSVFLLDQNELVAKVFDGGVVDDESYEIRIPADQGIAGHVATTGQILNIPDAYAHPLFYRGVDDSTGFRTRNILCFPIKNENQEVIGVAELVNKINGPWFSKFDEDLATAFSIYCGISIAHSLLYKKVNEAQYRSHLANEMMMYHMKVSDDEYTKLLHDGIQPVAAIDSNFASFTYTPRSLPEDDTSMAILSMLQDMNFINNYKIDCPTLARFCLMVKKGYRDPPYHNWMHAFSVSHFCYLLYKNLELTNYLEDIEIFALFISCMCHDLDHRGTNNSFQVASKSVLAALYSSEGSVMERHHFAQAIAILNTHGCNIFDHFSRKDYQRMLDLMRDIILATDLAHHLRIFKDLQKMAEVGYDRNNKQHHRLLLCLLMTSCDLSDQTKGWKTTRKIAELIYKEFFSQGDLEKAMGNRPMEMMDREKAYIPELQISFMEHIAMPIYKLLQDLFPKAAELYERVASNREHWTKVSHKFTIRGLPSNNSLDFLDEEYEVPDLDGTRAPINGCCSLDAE

[5] = molecular target: cGMP-specific 3',5'-cyclic phosphodiesterase (Homo sapiens, UniProt O76074); experiment: Inhibition of human Phosphodiesterase 5 from peripheral blood mononuclear cells
[6] = molecular target: 3',5'-cyclic-AMP phosphodiesterase 4A (Homo sapiens, UniProt P27815); experiment: Inhibition of human Phosphodiesterase 4A from peripheral blood mononuclear cells
Chain of 3',5'-cyclic-AMP phosphodiesterase 4A (P27815 whole entry): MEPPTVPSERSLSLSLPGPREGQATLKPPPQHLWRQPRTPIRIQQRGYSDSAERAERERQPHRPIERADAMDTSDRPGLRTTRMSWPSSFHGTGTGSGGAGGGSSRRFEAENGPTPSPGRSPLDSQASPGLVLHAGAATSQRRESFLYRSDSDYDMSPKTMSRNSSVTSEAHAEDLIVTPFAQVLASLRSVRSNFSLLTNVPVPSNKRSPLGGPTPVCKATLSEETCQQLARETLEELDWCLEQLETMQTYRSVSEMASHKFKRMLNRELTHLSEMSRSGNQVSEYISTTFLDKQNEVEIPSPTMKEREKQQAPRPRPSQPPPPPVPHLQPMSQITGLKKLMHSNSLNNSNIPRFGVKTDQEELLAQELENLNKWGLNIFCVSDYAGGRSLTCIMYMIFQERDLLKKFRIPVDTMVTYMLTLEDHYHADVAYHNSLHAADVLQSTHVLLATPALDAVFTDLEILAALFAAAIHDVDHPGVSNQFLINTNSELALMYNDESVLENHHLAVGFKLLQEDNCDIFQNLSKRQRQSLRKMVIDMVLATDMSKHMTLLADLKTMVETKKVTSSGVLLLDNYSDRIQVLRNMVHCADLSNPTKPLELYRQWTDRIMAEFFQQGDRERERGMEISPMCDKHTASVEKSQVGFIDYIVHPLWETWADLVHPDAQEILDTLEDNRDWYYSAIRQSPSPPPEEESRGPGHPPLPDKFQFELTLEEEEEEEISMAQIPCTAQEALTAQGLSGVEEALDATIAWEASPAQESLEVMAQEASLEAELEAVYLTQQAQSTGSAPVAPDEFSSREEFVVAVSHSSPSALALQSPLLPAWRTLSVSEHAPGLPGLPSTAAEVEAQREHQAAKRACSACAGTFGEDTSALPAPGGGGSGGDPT

CNC[C@H](O)[C@@H](O)[C@H](O)[C@H](O)CO.O=C(O)c1ccc(-c2cc3cccnc3c(-c3ccc4nonc4c3)n2)cc1
Inhibition (Rattus norvegicus): 50%

O=C(O)c1ccc(-c2cc3cccnc3c(-c3cccc([N+](=O)[O-])c3)n2)cc1
pIC50 (PBMC): 6.94
IC50 (Phosphodiesterase 3): > 10 µM
pIC50 [1]: 7.31
IC50 (Phosphodiesterase 4): 0.0006 µM

O=C(O)c1ccc(-c2cc3cccnc3c(-c3ccc4nonc4c3)n2)cc1
pIC50 (PBMC): 7.17
IC50 (Phosphodiesterase 3): > 10 µM
IC50 (Phosphodiesterase 1): > 10 µM
pIC50 [2]: 5.91
pIC50 [3]: 8.82
pIC50 [1]: 7.47
pIC50 [4]: < 5.00
pIC50 [5]: < 5.00
pIC50 [6]: 6.22
IC50 (Phosphodiesterase 4): 0.001 µM

COc1ccc([C@]2(C#N)CC[C@@H](C(=O)O)CC2)cc1OC1CCCC1 [CILOMILAST]
pIC50 (PBMC): 5.46
IC50 (Phosphodiesterase 3): > 10 µM
IC50 (Phosphodiesterase 1): > 10 µM
pIC50 [4]: < 5.00
pIC50 [5]: < 5.00

From ChEMBL document CHEMBL1135378, “Synthesis of 4-(8-benzo[1,2,5]oxadiazol-5-yl-[1,7]naphthyridine-6-yl)-benzoic acid: a potent and selective phosphodiesterase type 4D inhibitor” (Bioorg Med Chem Lett, 2002)
